What was measured:
Type in all cases: cell-based
IL-6 = IL-6 production by PHA stimulated human PBLs (ELISA); conditions: 24 h
Experimental: (§1) The effect of tripterinin on the production of the cytokines IL-1b, IL2, IL-6, IFNγ, and TNFα was assessed by measurement of the concentration of these cytokines in PHA stimulated human PBL cultures. Cytokine levels were measured by standard ELISA methods using commercially available kits, as detailed in Example 6. Briefly, assay buffer was added to each of the wells of a microtiter plate containing pre-bound anti-cytokine antibody, followed by addition of standard or sample solution, diluted appropriately for the cytokine concentration measured, followed by a second reporter-labeled antibody specific against the anti-cytokine antibody. […]
(§2) Cytokine measurements were carried out using commercially available ELISA assay kits (R&D Systems), in accordance with the supplier's protocols. In brief, 100 μl of the assay buffer supplied was added to each of the wells of a microtiter plate containing pre-bound anti-cytokine antibody, followed by 100 μl of standard or sample solution, diluted appropriately for the concentration range measured. […]
(§3) Following two hours incubation, the plates were washed four times with assay buffer, and the second antibody, anti-anti-cytokine-horseradish peroxidase (HRP), was added to each well in a volume of 200 μl. […] Optical density was determined using a Molecular Devices microtiter plate reader.

mouse thymocytes [1] = test: Inhibition of IL-1 action: IL-1 stimulated mouse thymocyte proliferation in presence of PHA
Experimental: The ability of tripterinin and tripterifordin to suppress the cell-proliferative effect of IL-1 in mouse thymocytes, an index of IL-1 action (O'Gara), was also examined. In this study, mouse thymocytes in culture were stimulated with IL-1 in the presence of phytohemagglutinin (PHA) and increasing concentrations of purified tripterinin or tripterifordin. The cells were cultured for 72 hours, and during the last four hours, incubated with tritiated thymidine. DNA synthesis was assessed by measurement of radiolabeled thymidine incorporation.
Mouse thymocytes were prepared, and the action of IL-1, which stimulates thymocyte proliferation, was measured using standard techniques (O'Gara). Three to six week old C3H/HeN mice were obtained from Simonsen Laboratories, Gilroy, Calif. and sacrificed by CO2 inhalation. Thymi were removed, separated from adherent non-thymic tissue, homogenized in Hank's balanced salt solution (Gibco) using a glass homogenizer, and centrifuged at 180×g for 10 minutes at 15° C. Following an additional wash in HBSS, the thymocytes were resuspended in RPMI 1640 tissue culture medium (Gibco) containing 50 μM 2-mercaptoethanol (Fisher), 2 mM glutamine (Gibco), 1 mM sodium pyruvate, non-essential amino acids, penicillin (100 U/ml) streptomycin (100 μg/ml), 10% heat inactivated fetal bovine serum and Phytohemagglutinin (PHA, Pharmacia, final concentration 10 μg/ml). Cells were cultured in round-bottom 96 well microtiter tissue culture plates, 6×10^5 cells per well in a volume of 100 μl. Tripterinin or tripterifordin was diluted in tissue culture medium and added to the wells in the presence and absence of IL-1 (recombinant human IL-1, R&D Systems catalog #201-LB, 0.1 ng/ml). Total volume was 150 μl per well.
Plates were incubated for 72 hours (95% air/5% CO2, 37° C.). During the last four hours of incubation, [^3 H]-thymidine (Amersham, […]) was added (0.5 μCi per well). Cells were harvested onto Whatman 934-AH glass microfiber filters and counted in a Beckman LS 6000 scintillation counter. Results were expressed as counts per minute per well.

TNFα = TNFα production by PHA stimulated human PBLs (ELISA); conditions: 24 h
Experimental: as §1, §2, §3

mouse thymocytes [2] = test: Cytotoxicity, MTT reduction, mouse thymocytes; conditions: up to 10 μg/ml, highest tested, 24 h
Experimental: Potential cytotoxicity of tripterinin was assessed by measurement of the effect of the compound on reduction of MTT (3-[4,5-Dimethylthiazol-2-yl]-2,5-diphenyltetrazolium bromide) by cultured cells, an index of cellular respiration and a sensitive assay for the detection of cytotoxicity (Green, et al.). Toxicity was evaluated in vitro in human PBLs and in mouse thymocytes, as detailed in Example 7. Sodium azide was used as a cytotoxic control. Cytotoxicity was also assessed using the standard method of trypan blue dye staining.
Potential cytotoxicity of tripterinin was assessed by measurement of the compound's effect on the reduction of MTT (3-[4,5-Dimethylthiazol-2-yl]-2,5-diphenyltetrazolium bromide) by cultured cells. MTT, a yellow-colored compound, is reduced by mitochondrial enzymes to form a purple crystalline reduction product (formazan), providing an index of cellular respiration as well as a sensitive assay for cytotoxicity (Green, et al.).
Cytotoxicity was assessed in cultured human PBLs and mouse thymocytes. […] (to solubilize the formazan crystals, the MTT reduction product), optical density was determined at 570-650 nm in a Molecular Devices microtiter plate reader. Data are expressed as the ratio of the optical density of the tripterinin treated sample to that of untreated controls. […]

SMILES: C[C@]12CCC[C@]3(COC1=O)[C@@H]2CC[C@@]12C[C@@H](CC[C@]13O)[C@](C)(O)C2 [tripterinin]
- decrease in IL-6 production (IL-6; 0.7 μg/ml tripterinin): 83%
- decrease in IL-6 production (IL-6; 3.13 μg/ml tripterinin): 99%
- concentration at which IL-1 stimulated cell proliferation was inhibited (mouse thymocytes [1]; mouse thymocytes, IL-1 with PHA, FIG. 10): about 0.2 μg/ml
- inhibition of IL-1 stimulated thymocyte proliferation (mouse thymocytes [1]; tripterifordin 3.13 μg/ml, about 3 μg/ml, tripterinin 0.02 to 1 μg/ml): dose dependent inhibition
- decrease in TNFα production (TNFα; 0.7 μg/ml tripterinin): 93%
- decrease in TNFα production (TNFα; 3.13 μg/ml tripterinin): 98%
- cytotoxicity (MTT reduction) (mouse thymocytes [2]): No significant toxicity
- cytotoxicity (MTT reduction) (mouse thymocytes [2]; listed as Tripterinin): no significant toxicity
